In US6458746B1, “Plant growth regulating formulations” (BASF Aktiengesellschaft, priority 1998, dated 2002):

Assays:
Assay type in all cases: in vivo
oats = assay: Greenhouse shoot length test, oats; details: 1% formulations in cyclohexanone: Emulan EL = 4:1; further: key: 0: no effect; +: low activity; ++: intermediate activity; +++: high activity
Procedure: (§1) Unless otherwise noted, the growth regulating proerties of different compounds in different formulations were determined under greenhouse conditions as follows: […]
(§2) Test plants were grown in plastic pots of approximately 12.5 cm in diameter in a substrate provided with sufficient nutrients and water. At an appropriate shoot length the plants were treated with aqueous sprays of the formulations. The growth-regulating action observed was confirmed at the end of the experiment by measuring the height of the plants. The results obtained were compared with the growth height of the untreated plants.

[1] = system: small grains and rice (wheat, barley, oats, rye, rice); assay: Shoot length reduction in small grains and rice (statements across species); details: for shoot length reduction compared with compounds II to V: Examples 1 and 2; for dosages needed to obtain results equivalent to compounds VI, VII, and IX: in these plant species, applied in commercial formulations
Procedure: as §1, §2

barley = assay: Greenhouse shoot length test, barley; details: for Shoot length reduction [activity, relative to control] in barley: 1% formulations in cyclohexanone: Emulan EL = 4:1; for Shoot length Barley [% of control]: 1% formulations in Atlas G 1086; on Shoot length reduction [activity, relative to control] in barley: key: 0: no effect; +: low activity; ++: intermediate activity; +++: high activity
Procedure: as §1, §2
(§3) Assays with wheat, barley, oat, and rye plants were carried out as described above. The aqueous spray solutions were prepared as follows: […]

rye = assay: Greenhouse shoot length test, rye; details: 1% formulations in cyclohexanone: Emulan EL = 4:1; further: key: 0: no effect; +: low activity; ++: intermediate activity; +++: high activity
Procedure: as §1, §2

wheat = assay: Greenhouse shoot length test, wheat; details: for Shoot length reduction [activity, relative to control] in wheat: 1% formulations in cyclohexanone: Emulan EL = 4:1; for Shoot length Wheat [% of control]: 1% formulations in Atlas G 1086
Procedure: as §1, §2, §3

rice = assay: Greenhouse shoot length test, rice; details: 1% formulations in cyclohexanone: Emulan EL = 4:1; further: key: 0: no effect; +: low activity; ++: intermediate activity; +++: high activity
Procedure: as §1, §2

[2] = system: spring barley (cv. “Alexis”); assay: Shoot height reduction in spring barley, synergistic combinations; details: 20 days after treatment
Procedure: as §1, §2
(§4) To show the synergistic effects of formulations in accordance with the instant invention together with further growth regulating agents, formulations in accordance with the invention were prepared and additional active ingredients added.
Shoot height reduction in spring barley (cv. “Alexis”) 20 days after treatment with combinations of standard compound S2 and compound VII
Shoot height reduction in spring barley (cv. “Alexis”) 20 days after treatment with combinations of standard compound S4 and compound VII

[3] = system: spring wheat (cv. “Ralle”); assay: Shoot height reduction in spring wheat, synergistic combinations
Procedure: as §1, §2, §4
Shoot height reduction in spring wheat (cv. “Ralle”) 21 days after treatment with combinations of standard compound S4 and compound VII
Shoot height reduction in spring wheat (cv. “Ralle”) 13 days after treatment with combinations of standard compound S5 and compound VII

[4] = system: rice seedlings [cvs. “Koshihikari” (tall), “Tan-ginbozu” (dwarf), “Waito C” (dwarf)]; assay: Shoot growth of rice seedlings, combinations with GA3; details: for Shoot growth Waito C [% of Control] / Shoot growth Tan-ginbozu [% of Control] / Shoot growth Koshihikari [% of Control]: 7 days after treatment, 1 kg/ha ammonium sulphate added; for Shoot growth Waito C [% of Control]: 100% = 8.7 cm; for Shoot growth Tan-ginbozu [% of Control]: 100% = 9.4 cm; for Shoot growth Koshihikari [% of Control]: 100% = 17.4 cm
Procedure: as §1, §2
The synergizing effect of compound VII on shoot elongation in rice is shown in the results of Example 7.
Enhanced shoot growth of rice seedlings [cvs. “Koshihikari” tall), “Tan-ginbozu” (dwarf), “Waito C” (dwarf)] 7 days after treatment with combinations of compound 6 with GA3^d

[5] = 750 g/ha ai, adjuvant R 15 500 g/ha
[6] = 2.5 g/ha ai, adjuvant Ethanol 500 g/ha
[7] = 2.5 g/ha ai, adjuvant R 15 500 g/ha

Molecule: CCCO[C@]12CC[C@@H]3[C@](C[C@H]1C)(C2)[C@@H](C(=O)O)[C@H]1[C@@]32CC=C[C@]1(C)C(=O)O2 [Comp. IX, exo-16,17-Dihydro-GA5-13-n-propyl ether]
- Shoot length reduction [activity, relative to control] in oats (oats): ++
- shoot length reduction compared with compounds II to V [1]: superior to compounds II to V
- Shoot length reduction [activity, relative to control] in barley (barley): ++
- Shoot length reduction [activity, relative to control] in rye (rye): ++
- Shoot length reduction [activity, relative to control] in wheat (wheat): ++
- Shoot length reduction [activity, relative to control] in rice (rice): ++

Molecule: CC(=O)OC12CCC3C(CC1C)(C2)C(C(=O)O)C1C2(C)C=CCC13OC2=O (stereo not drawn) [Comp. VI, endo-16,17-Dihydro-GA5-13-acetate]
- Shoot length reduction [activity, relative to control] in oats (oats): ++
- shoot length reduction compared with compounds II to V [1]: superior to compounds II to V
- Shoot length reduction [activity, relative to control] in barley (barley): +++
- Shoot length Barley [% of control] (barley; 1.6 g/ha ai): 95 % of control
- Shoot length Barley [% of control] (barley; 3.1 g/ha ai): 84 % of control
- Shoot length Barley [% of control] (barley; 6.3 g/ha ai): 65 % of control
- Shoot length Barley [% of control] (barley; 12.5 g/ha ai): 53 % of control
- Shoot length reduction [activity, relative to control] in rye (rye): +++
- Shoot length reduction [activity, relative to control] in wheat (wheat): +++
- Shoot length Wheat [% of control] (wheat; 1.6 g/ha ai): 88 % of control
- Shoot length Wheat [% of control] (wheat; 3.1 g/ha ai): 88 % of control
- Shoot length Wheat [% of control] (wheat; 6.3 g/ha ai): 68 % of control
- Shoot length Wheat [% of control] (wheat; 12.5 g/ha ai): 64 % of control
- Shoot length reduction [activity, relative to control] in rice (rice): +++

Molecule: C[N+](C)(C)CCCl [S2, chlormequat chloride, reference compound]
- activity-enhancing effects of ethoxylated castor oil R 15 ([1]; barley and wheat, Example 5): not or only at a far lower degree found
- activity in the other plant species compared with wheat ([1]; plant species other than wheat): significantly less active
- Shoot length [% of control] Barley (barley; [5]): 94 % of control
- Shoot length [% of control] Barley (barley; 750 g/ha ai, no adjuvant): 94 % of control
- % Shoot height reduction Actual ([2]; 750 g/ha a.i.): 11%
- % Shoot height reduction Actual ([2]; 1500 g/ha a.i.): 10%
- Shoot length [% of control] Wheat (wheat; [5]): 75 % of control
- Shoot length [% of control] Wheat (wheat; 750 g/ha ai, no adjuvant): 83 % of control
- dosages of active ingredient needed to obtain results equivalent to compounds VI, VII, and IX (wheat; in wheat): approximately 100 times higher

Molecule: CCOC(=O)C1CC(=O)C(=C(O)C2CC2)C(=O)C1 (stereo not shown) [S5, trinexapac-ethyl, reference compound]
- dosages needed to obtain results equivalent to compounds VI, VII, and IX [1]: approximately 20 times higher
- % Shoot height reduction Actual ([3]; 30 g/ha a.i., 13 days after treatment): 14%

Molecule: exo-16,17-Dihydro-GA5-13-acetate [Comp. VII]
- Shoot length reduction [activity, relative to control] in oats (oats): +++
- shoot length reduction compared with compounds II to V [1]: superior to compounds II to V
- Shoot length reduction [activity, relative to control] in barley (barley): +++
- Shoot length Barley [% of control] (barley; 1.6 g/ha ai): 97 % of control
- Shoot length [% of control] Barley (barley; [6]): 99 % of control
- Shoot length [% of control] Barley (barley; [7]): 75 % of control
- Shoot length Barley [% of control] (barley; 3.1 g/ha ai): 78 % of control
- Shoot length Barley [% of control] (barley; 6.3 g/ha ai): 61 % of control
- Shoot length Barley [% of control] (barley; 12.5 g/ha ai): 57 % of control
- % Shoot height reduction Actual ([2]; 3 g/ha a.i.): 6%
- % Shoot height reduction Actual ([2]; 3 g/ha a.i., S4/VII table): 6%
- % Shoot height reduction Actual ([2]; 6 g/ha a.i.): 18%
- % Shoot height reduction Actual ([2]; 6 g/ha a.i., S4/VII table): 18%
- Shoot length reduction [activity, relative to control] in rye (rye): +++
- Shoot length reduction [activity, relative to control] in wheat (wheat): +++
- Shoot length Wheat [% of control] (wheat; 1.6 g/ha ai): 90 % of control
- Shoot length [% of control] Wheat (wheat; [6]): 99 % of control
- Shoot length [% of control] Wheat (wheat; [7]): 73 % of control
- Shoot length Wheat [% of control] (wheat; 3.1 g/ha ai): 73 % of control
- Shoot length Wheat [% of control] (wheat; 6.3 g/ha ai): 70 % of control
- Shoot length Wheat [% of control] (wheat; 12.5 g/ha ai): 64 % of control
- % Shoot height reduction Actual ([3]; 3 g/ha a.i., 21 days after treatment): 8%
- % Shoot height reduction Actual ([3]; 6 g/ha a.i., 13 days after treatment): 18%
- % Shoot height reduction Actual ([3]; 6 g/ha a.i., 21 days after treatment): 21%
- Shoot length reduction [activity, relative to control] in rice (rice): +++
- Shoot growth Waito C [% of Control] ([4]; VII 12.5 g/ha ai): 80 % of Control
- Shoot growth Tan-ginbozu [% of Control] ([4]; VII 12.5 g/ha ai): 74 % of Control
- Shoot growth Koshihikari [% of Control] ([4]; VII 12.5 g/ha ai): 75 % of Control
- Shoot growth Waito C [% of Control] ([4]; VII 25.0 g/ha ai): 80 % of Control
- Shoot growth Tan-ginbozu [% of Control] ([4]; VII 25.0 g/ha ai): 74 % of Control
- Shoot growth Koshihikari [% of Control] ([4]; VII 25.0 g/ha ai): 75 % of Control
- Shoot growth Waito C [% of Control] ([4]; VII 50.0 g/ha ai): 80 % of Control
- Shoot growth Tan-ginbozu [% of Control] ([4]; VII 50.0 g/ha ai): 74 % of Control
- Shoot growth Koshihikari [% of Control] ([4]; VII 50.0 g/ha ai): 75 % of Control
- effect on shoot elongation in rice ([4]; applied alone): reduces shoot elongation
- effect on the shoot growth-promoting effect of GA3 ([4]; applied in combination with GA3): could clearly be raised

Molecule: prohexadione-Ca [S4, reference compound]
- dosages needed to obtain results equivalent to compounds VI, VII, and IX [1]: approximately 20 times higher
- % Shoot height reduction Actual ([3]; 30 g/ha a.i., 21 days after treatment): 6%
- % Shoot height reduction Actual ([3]; 60 g/ha a.i., 21 days after treatment): 15%
